# Test results published in article PMC6048268, “Resveratrol Inhibits Key Steps of Steroid Metabolism in a Human Estrogen-Receptor Positive Breast Cancer Model: Impact on Cellular Proliferation” (Frontiers in Pharmacology, 2018).
# Values joined by “and” are separate entries in the source; they are usually repeats but may differ in a detail not shown here. Equal values may be shown once. Read-outs that look alike come from different tables or passages of the source.
# What was measured:
# MDA-MB-231 cells [1] = assay: Metabolism of RES in MDA-MB-231 cells (HPLC)
# Experimental: (§1) After 48 h, the cellular media (100 μl) were mixed with 200 μl ice-cold (-20°C) methanol and subsequently centrifuged (14000 rpm, 5 min). The clear supernatants were then diluted 1:1 with aqueous ammonium acetate buffer (5 mM, pH = 7.4), and 80 μl of the samples were injected onto the HPLC column. […] Calibration of the chromatogram was accomplished using the external standard method.
# (§2) The modes of inhibition were subsequently determined from Lineweaver–Burk plots, and the corresponding Ki values were calculated from Dixon plots using GraphPad Prism 6.0.
# MCF-7 cells [2] = assay: Metabolism of RES in MCF-7 cells (HPLC); conditions: MCF-7, Hill model
# Experimental: as §1, §2
# MDA-MB-231 cells [3] = conditions: for Km / Vmax: MDA-MB-231, precursor DHEA or E1 0–100 nM, Michaelis–Menten
# Experimental: (§3) Briefly, cartridges were preconditioned with 2 × 1.0 ml acetonitrile and 3 × 1.0 ml ammonium acetate buffer (10 mM, pH = 5.0), and the samples were loaded onto the columns. After washing with 1 × 1.0 ml ammonium acetate buffer (10 mM, pH = 5.0) and 2 × 1.0 ml acetonitrile/ammonium acetate buffer (10 mM, pH 5.0) 10:90 (v/v), the analytes were eluted using 2 × 650 μl acetonitrile/ammonium acetate buffer (10 mM, pH = 5.0) 95:5 (v/v) and evaporated until dry. Subsequently, samples were reconstituted in 270 μl acetonitrile/ammonium acetate buffer (10 mM, pH = 5.0) 25:75 (v/v) and stored at -80°C until further LC–HRMS analysis.
# (§4) After media collection, cell monolayers were washed five times with 2.0 ml DPBS, detached using 400 μl TrypLE® solution (37°C, 5 min), mixed with 600 μl DPBS and transferred into sample vials. Aliquots of these suspensions (100 μl each) were diluted and counted using the Casy® TT Cell Counter to determine the exact number of cells per sample well. The remaining cell suspensions (900 μl each) were gently centrifuged (1000 rpm, 8 min), and the supernatants were discarded. The cell pellets were subsequently resuspended in 100 μl aqueous ammonium acetate buffer (10 mM, pH = 5.0) and lysed by five freeze-thaw-cycles in liquid nitrogen (3 min each), followed by thawing at ambient temperature. Ammonium acetate buffer (1000 μl) was added, and the suspensions were centrifuged (14000 rpm, 5 min). Subsequently, the supernatants were concentrated using the same SPE protocol as described above. All processed samples were then stored at -80°C until further LC–HRMS analysis. For each condition, three biologically independent experiments were performed; the reported values represent the overall means ± SD of all values.
# (§5) LC was performed with an UltiMate 3000 RSLC-series system coupled to a maXis HD ESI-Qq-TOF mass spectrometer (Bruker Corporation, Bremen, Germany). A Phenomenex Luna® 3 μm C18(2) 100 Å LC column (250 mm × 4.6 mm I.D.; Phenomenex, Inc., Torrance, CA, United States), preceded by a Hypersil® BDS-C18 guard column (5 μm, 10 mm × 4.6 mm I.D.; Thermo Fisher Scientific, Inc.) was used for the separation of the analytes at a flow rate of 1.0 ml/min and a temperature of 43°C. […] The ESI ion source settings were as follows: capillary voltage: -4.5 kV; dry gas flow rate: 8.0 l/min N2; nebulizer: 1.0 bar N2; and dry temperature: 200°C. The ion transfer parameters were set to 400 Vpp funnel RF and 300 Vpp multipole RF, the quadrupole ion energy was 8.0 eV, and the collision cell parameters were as follows: collision RF, 1100 Vpp; collision energy, 10.0 eV; transfer time, 38 μs; and pre-pulse storage, 18 μs. In the range of m/z 150–500, full-scan mass spectra were recorded.
# as §2
# MCF-7 cells [4] = conditions: for Vmax: MCF-7, precursor DHEA or E1 0–100 nM, Michaelis–Menten
# Experimental: as §3, §4, §5, §2
# [5] = tested on: steroid metabolism in MCF-7 cells; assay: Inhibition of steroid metabolism by RES in MCF-7 cells (LC–HRMS)
# Experimental: as §3, §4, §5, §2
SMILES,"formation rate (MDA-MB-231 cells [3]; MDA-MB-231, 100 nM E1, 48 h)","formation rate (MCF-7 cells [4]; MCF-7, 100 nM E1, 48 h)","Km ([5]; MCF-7, 0 μM RES)","Vmax ([5]; MCF-7, 0 μM RES)","Km ([5]; MCF-7, 5 μM RES)","Vmax ([5]; MCF-7, 5 μM RES)","Km ([5]; MCF-7, 10 μM RES)","Vmax ([5]; MCF-7, 10 μM RES)","Km ([5]; MCF-7, 25 μM RES)","Vmax ([5]; MCF-7, 25 μM RES)","Km ([5]; MCF-7, 50 μM RES)","Vmax ([5]; MCF-7, 50 μM RES)","Km ([5]; MCF-7, 100 μM RES)","Vmax ([5]; MCF-7, 100 μM RES)",Km (MDA-MB-231 cells [3]; 48 h),Vmax (MDA-MB-231 cells [3]; 48 h),Vmax (MCF-7 cells [4]; 48 h),other results
"O=C(O)[C@H]1O[C@@H](Oc2cc(O)cc(/C=C/c3ccc(O)cc3)c2)[C@H](O)[C@@H](O)[C@@H]1O (relative stereo) [RES-3G, trans-resveratrol-3-O-(β-D-glucuronide)]",–,–,–,–,–,–,–,–,–,–,–,–,–,–,–,–,–,"maximum metabolite formation rate (MDA-MB-231 cells [1]; 25 μM RES, 48 h): 23.9 ± 2.4 pmol/10^6 cells/h; Vmax (MDA-MB-231 cells [1]; MDA-MB-231, Michaelis–Menten model): 32.8 ± 8.6 pmol/10^6 cells/h; Vmax (MDA-MB-231 cells [1]; MDA-MB-231, substrate inhibition model): 43.4 ± 2.2 pmol/10^6 cells/h; Slope (n) (MCF-7 cells [2]): 1.86 ± 0.18; Vmax (MCF-7 cells [2]): 422.9 ± 38.9 pmol/10^6 cells/h"
"C[C@]12CC[C@@H]3c4ccc(O)cc4CC[C@H]3[C@@H]1C[C@@H](O)[C@@H]2O [E3, 16α-hydroxy-17β-estradiol]",below the LLOQ,0.57 ± 0.06 fmol/10^6 cells/h,–,–,–,–,–,–,–,–,–,–,–,–,–,–,–,–
"O=S(=O)(O)Oc1ccc(/C=C/c2cc(O)cc(OS(=O)(=O)O)c2)cc1 [RES-DS, trans-resveratrol-3-O-4′-O-disulfate]",–,–,–,–,–,–,–,–,–,–,–,–,–,–,–,–,–,"formation of RES metabolite (MDA-MB-231 cells [1]; RES 0–100 μM, 48 h): below the detection limit"
"C[C@]12CC[C@@H]3c4ccc(O[C@@H]5O[C@H](C(=O)O)[C@@H](O)[C@H](O)[C@H]5O)cc4CC[C@H]3[C@@H]1CC[C@@H]2O [E2-G, 17β-estradiol-3-O-(β-D-glucuronide)]",–,–,0.123 ± 0.0084 µM,7.29 ± 0.36 fmol/10^6 cells/h,0.135 ± 0.0059 µM,7.00 ± 0.20 fmol/10^6 cells/h,0.136 ± 0.006 µM,4.98 ± 0.14^∗ fmol/10^6 cells/h,0.132 ± 0.008 µM,2.60 ± 0.12^∗ fmol/10^6 cells/h,0.126 ± 0.0132 µM,1.51 ± 0.11^∗ fmol/10^6 cells/h,0.132 ± 0.0039 µM,0.77 ± 0.02^∗ fmol/10^6 cells/h,0.0879 ± 0.0322 µM,0.33 ± 0.07 fmol/10^6 cells/h,7.29 ± 1.36 fmol/10^6 cells/h and 7.29 ± 1.36^∗ fmol/10^6 cells/h,"formation rate (MDA-MB-231 cells [3]; human, 48 h, 100 nM): 0.18 ± 0.02 fmol/10^6 cells/h; formation rate (MCF-7 cells [4]; human, 48 h, 100 nM): 3.23 ± 0.45 fmol/10^6 cells/h"
"C[C@]12CC[C@@H]3c4ccc(OS(=O)(=O)O)cc4CC[C@H]3[C@@H]1CC[C@@H]2O [E2-S, 17β-estradiol-3-O-sulfate]",0.12 ± 0.02 fmol/10^6 cells/h,11.8 ± 0.8 fmol/10^6 cells/h,0.104 ± 0.0155 µM,24.7 ± 4.9 fmol/10^6 cells/h,0.106 ± 0.0159 µM,6.64 ± 0.58^∗ fmol/10^6 cells/h,0.0993 ± 0.0128 µM,2.34 ± 0.19^∗ fmol/10^6 cells/h,0.0949 ± 0.0147 µM,1.01 ± 0.10^∗ fmol/10^6 cells/h,0.101 ± 0.0112 µM,0.56 ± 0.01^∗ fmol/10^6 cells/h,0.0997 ± 0.006 µM,0.27 ± 0.01^∗ fmol/10^6 cells/h,0.038 ± 0.0136 µM,0.16 ± 0.02 fmol/10^6 cells/h,24.7 ± 4.9 fmol/10^6 cells/h and 24.7 ± 4.9^∗ fmol/10^6 cells/h,–
